Legend:
[1] = system: potted Poinsettia plants; settings: foliar application; cited from earlier work
[2] = system: Calibrachoa; assay: Drought tolerance and side effects after ABA drench, irrigation withheld; format: in vivo; settings: drenched with 250 ppm ABA, greenhouse, no irrigation
Text: (§1) Many different commercial ornamental crops were obtained from local retailers, or from wholesale nurseries, and transported to a greenhouse for testing. Plants were watered to saturation and allowed to stand and drain for about one hour. Plants were selected for uniformity based on leaf area and arranged in a randomized complete block design, or a completely randomized design, on the greenhouse bench. The plants were sprayed or drenched with water or treatment solution equaling about 5-10% of the pot volume. The plants were held without irrigation until all the plants wilted to a point when they were determined to be unmarketable. The plants were rated daily for the extent of wilting on a scale from 1 for no wilting to 4 for complete wilting. A rating of 2.5 was the point at which a plant was determined to be unmarketable and the previous day was recorded as the marketable life of that plant in days. The plants were rated for the extent of lower leaf yellowing or leaf or flower abscission on a scale from 1 for no yellowing or abscission to 4 for complete yellowing or abscission. A rating of 2.5 was the point at which a plant was determined to be unmarketable.
(§2) Plants were individually rated on a daily basis for degree of wilting and other undesirable characteristics like leaf yellowing.

[3] = system: Impatiens; assay: as above; format: in vivo; settings: drenched with 250 ppm ABA, greenhouse, no irrigation
Text: as §1, §2

[4] = system: Cosmos; assay: as above; format: in vivo; settings: drenched with 250 ppm ABA, greenhouse, no irrigation
Text: as §1, §2

[5] = system: Agapanthus; assay: as above; format: in vivo; settings: drenched with 250 ppm ABA, greenhouse, no irrigation
Text: as §1, §2

[6] = system: Cuphea; assay: as above; format: in vivo; settings: drenched with 250 ppm ABA, greenhouse, no irrigation
Text: as §1, §2

[7] = system: Lobelia; assay: as above; format: in vivo; settings: drenched with 250 ppm ABA, greenhouse, no irrigation
Text: as §1, §2

[8] = system: Coleus; assay: as above; format: in vivo; settings: drenched with 250 ppm ABA, greenhouse, no irrigation
Text: as §1, §2

[9] = system: Salvia; assay: as above; format: in vivo; settings: drenched with 250 ppm ABA, greenhouse, no irrigation
Text: as §1, §2

[10] = system: Rose; assay: as above; format: in vivo; settings: drenched with 250 ppm ABA, greenhouse, no irrigation
Text: as §1, §2

[11] = system: Poinsettia; assay: as above; format: in vivo; settings: drenched with 250 ppm ABA, greenhouse, no irrigation
Text: as §1, §2

[12] = system: Vinca; assay: as above; format: in vivo
Text: as §1, §2

[13] = system: Petunia; assay: as above; format: in vivo; settings: drenched with 250 ppm ABA, greenhouse, no irrigation
Text: as §1, §2

[14] = system: New Guinea Impatiens; assay: as above; format: in vivo
Text: as §1, §2

[15] = system: Chrysanthemum; assay: as above; format: in vivo; settings: drenched with 250 ppm ABA, greenhouse, no irrigation
Text: as §1, §2

[16] = system: Pentas; assay: as above; format: in vivo; settings: drenched with 250 ppm ABA, greenhouse, no irrigation
Text: as §1, §2

[17] = system: Celosia; assay: as above; format: in vivo; settings: drenched with 250 ppm ABA, greenhouse, no irrigation
Text: as §1, §2

[18] = system: Alyssum; assay: as above; format: in vivo; settings: drenched with 250 ppm ABA, greenhouse, no irrigation
Text: as §1, §2

[19] = system: Hydrangea; assay: as above; format: in vivo; settings: drenched with 250 ppm ABA, greenhouse, no irrigation
Text: as §1, §2

[20] = system: Lantana; assay: as above; format: in vivo; settings: drenched with 250 ppm ABA, greenhouse, no irrigation
Text: as §1, §2

[21] = system: Snapdragon; assay: as above; format: in vivo; settings: drenched with 250 ppm ABA, greenhouse, no irrigation
Text: as §1, §2

[22] = system: Pansy; assay: as above; format: in vivo
Text: as §1, §2

[23] = system: Euryops; assay: as above; format: in vivo; settings: drenched with 250 ppm ABA, greenhouse, no irrigation
Text: as §1, §2

[24] = system: Gazania; assay: as above; format: in vivo; settings: drenched with 250 ppm ABA, greenhouse, no irrigation
Text: as §1, §2

[25] = system: Dianthus; assay: as above; format: in vivo; settings: drenched with 250 ppm ABA, greenhouse, no irrigation
Text: as §1, §2

[26] = system: Marigold; assay: as above; format: in vivo; settings: drenched with 250 ppm ABA, greenhouse, no irrigation
Text: as §1, §2

[27] = system: excised Coleus leaves; settings: applied through the petiole of excised Coleus leaves, compared to excised leaves standing in water; cited from earlier work
[28] = drenched with 250 ppm ABA, greenhouse, no irrigation

(S)-5-(1-hydroxy-2,6,6,-trimethyl-4-oxo-2-cyclohexen-1-yl)-3-methyl-(2Z,4E)-pentadienoic acid [ABA]
Transpiration [1]: reduced the transpiration | Market life extension (days of additional market life compared to control plants due to delayed wilting) [2]: 0 days | Market life extension (days of additional market life compared to control plants due to delayed wilting) [3]: 2.0 days | Market life extension (days of additional market life compared to control plants due to delayed wilting) [4]: 1.4 days | Market life extension (days of additional market life compared to control plants due to delayed wilting) [5]: 0 days | Market life extension (days of additional market life compared to control plants due to delayed wilting) [6]: 2.3 days | Market life extension (days of additional market life compared to control plants due to delayed wilting) [7]: 2.5 days | Market life extension (days of additional market life compared to control plants due to delayed wilting) [8]: 2.3 days | Market life extension (days of additional market life compared to control plants due to delayed wilting) [9]: 1.9 days | Market life extension (days of additional market life compared to control plants due to delayed wilting) [10]: 0 days | Market life extension (days of additional market life compared to control plants due to delayed wilting) [11]: 2.0 days | Drought tolerance of treated plants (in words) ([12]; ABA application): more drought tolerant | Market life extension (days of additional market life compared to control plants due to delayed wilting) [12, 28]: 2.5 days | Market life extension (days of additional market life compared to control plants due to delayed wilting) [13]: 3.5 days | Drought tolerance of treated plants (in words) ([14]; ABA application): much greater drought tolerance | Market life extension (days of additional market life compared to control plants due to delayed wilting) [14, 28]: 3.3 days | Market life extension (days of additional market life compared to control plants due to delayed wilting) [15]: 2.0 days | Market life extension (days of additional market life compared to control plants due to delayed wilting) [16]: 2.8 days | Market life extension (days of additional market life compared to control plants due to delayed wilting) [17]: 2.3 days | Market life extension (days of additional market life compared to control plants due to delayed wilting) [18]: 0 days | Market life extension (days of additional market life compared to control plants due to delayed wilting) [19]: 3.4 days | Market life extension (days of additional market life compared to control plants due to delayed wilting) [20]: 2.4 days | Market life extension (days of additional market life compared to control plants due to delayed wilting) [21]: 1.5 days | Drought tolerance of treated plants (in words) ([22]; ABA application): more drought tolerant | Market life extension (days of additional market life compared to control plants due to delayed wilting) [22, 28]: 1.6 days | Market life extension (days of additional market life compared to control plants due to delayed wilting) [23]: 3.3 days | Market life extension (days of additional market life compared to control plants due to delayed wilting) [24]: 0 days | Market life extension (days of additional market life compared to control plants due to delayed wilting) [25]: 1.6 days | Market life extension (days of additional market life compared to control plants due to delayed wilting) [26]: 1.9 days | Transpiration rate [27]: reduces their transpiration rate

From patent US9295253B2, “Use of abscisic acid on ornamental plants” (Valent BioSciences Corporation, priority 2007, dated 2016)
